# From ChEMBL document CHEMBL4725227, “Dual-Target Inhibitors Based on HDACs: Novel Antitumor Agents for Cancer Therapy” (J Med Chem, 2020)
# What was measured:
# Histone deacetylase = assay: Inhibition of HDAC (unknown origin); assay type: protein assay, Homo sapiens
# THP-1 = assay: Growth inhibition of human THP-1 cells; assay type: functional
# [1] = biological target: Vascular endothelial growth factor receptor 2 (Homo sapiens, UniProt P35968); assay: Inhibition of VGFR2 (unknown origin)
# MCF7 [2] = assay: Cytotoxicity against human MCF7 cells assessed as reduction in cell viability by MTT assay; assay type: functional, cell-based
# MCF7 [3] = assay: Cytotoxicity against human MCF7 cells assessed as reduction in cell viability in presence of SAHA by MTT assay; assay type: functional, cell-based
# A549 = assay: Cytotoxicity against human A549 cells assessed as reduction in cell viability by MTT assay
# A-431 = assay: Cytotoxicity against human A-431 cells assessed as reduction in cell viability by MTT assay; assay type: functional, cell-based
# Histone deacetylase 1 [4] = biological target: T1, Histone deacetylase 1 (Homo sapiens, UniProt Q13547); assay: Inhibition of HDAC1 (unknown origin)
# T1 sequence (Q13547 whole entry): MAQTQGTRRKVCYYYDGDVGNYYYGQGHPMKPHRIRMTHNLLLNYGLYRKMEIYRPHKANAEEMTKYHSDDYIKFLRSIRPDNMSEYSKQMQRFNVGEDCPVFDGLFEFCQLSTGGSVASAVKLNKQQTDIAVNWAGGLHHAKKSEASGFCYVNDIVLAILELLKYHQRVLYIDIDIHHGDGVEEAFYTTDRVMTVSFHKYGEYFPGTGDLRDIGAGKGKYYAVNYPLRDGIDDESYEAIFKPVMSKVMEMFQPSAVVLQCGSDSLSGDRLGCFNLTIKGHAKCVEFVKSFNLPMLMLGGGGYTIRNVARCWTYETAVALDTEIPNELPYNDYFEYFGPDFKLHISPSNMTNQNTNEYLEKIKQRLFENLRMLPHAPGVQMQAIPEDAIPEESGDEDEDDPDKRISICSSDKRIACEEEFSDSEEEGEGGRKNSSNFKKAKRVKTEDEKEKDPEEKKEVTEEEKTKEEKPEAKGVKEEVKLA
# [5] = biological target: T2, Bromodomain-containing protein 4 (Homo sapiens, UniProt O60885); assay: Inhibition of BRD4 (unknown origin)
# Histone deacetylase 1 [6] = biological target: T1, Histone deacetylase 1; assay: Inhibition of recombinant human HDAC1 expressed in baculovirus expression system using Ac-Lys-Tyr-Lys (epsilon-acetyl)-AMC as substrate after 24 hrs by fluorescence assay
# Histone deacetylase 3 = Histone deacetylase 3 (Homo sapiens, UniProt O15379); assay: Inhibition of recombinant human HDAC3 expressed in baculovirus expression system using Ac-Lys-Tyr-Lys (epsilon-acetyl)-AMC as substrate after 24 hrs by fluorescence assay
# Sequence of Histone deacetylase 3 (O15379 whole entry): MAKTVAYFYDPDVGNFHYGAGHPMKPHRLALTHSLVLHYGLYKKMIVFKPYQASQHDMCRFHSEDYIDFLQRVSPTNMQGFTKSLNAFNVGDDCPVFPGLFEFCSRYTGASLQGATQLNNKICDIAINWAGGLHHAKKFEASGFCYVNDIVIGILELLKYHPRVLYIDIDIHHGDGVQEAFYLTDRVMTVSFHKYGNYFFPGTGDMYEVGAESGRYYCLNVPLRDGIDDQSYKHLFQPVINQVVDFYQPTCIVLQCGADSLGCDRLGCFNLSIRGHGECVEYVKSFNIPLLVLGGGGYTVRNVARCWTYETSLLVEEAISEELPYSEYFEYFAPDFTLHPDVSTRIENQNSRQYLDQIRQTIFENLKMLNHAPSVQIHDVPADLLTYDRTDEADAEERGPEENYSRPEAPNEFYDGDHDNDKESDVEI
# [7] = biological target: Protein deacetylase HDAC6 (Homo sapiens, UniProt Q9UBN7); assay: Inhibition of recombinant human HDAC6 expressed in baculovirus expression system using Ac-Lys-Tyr-Lys (epsilon-acetyl)-AMC as substrate after 24 hrs by fluorescence assay
# Sequence of Protein deacetylase HDAC6 (Q9UBN7 whole entry): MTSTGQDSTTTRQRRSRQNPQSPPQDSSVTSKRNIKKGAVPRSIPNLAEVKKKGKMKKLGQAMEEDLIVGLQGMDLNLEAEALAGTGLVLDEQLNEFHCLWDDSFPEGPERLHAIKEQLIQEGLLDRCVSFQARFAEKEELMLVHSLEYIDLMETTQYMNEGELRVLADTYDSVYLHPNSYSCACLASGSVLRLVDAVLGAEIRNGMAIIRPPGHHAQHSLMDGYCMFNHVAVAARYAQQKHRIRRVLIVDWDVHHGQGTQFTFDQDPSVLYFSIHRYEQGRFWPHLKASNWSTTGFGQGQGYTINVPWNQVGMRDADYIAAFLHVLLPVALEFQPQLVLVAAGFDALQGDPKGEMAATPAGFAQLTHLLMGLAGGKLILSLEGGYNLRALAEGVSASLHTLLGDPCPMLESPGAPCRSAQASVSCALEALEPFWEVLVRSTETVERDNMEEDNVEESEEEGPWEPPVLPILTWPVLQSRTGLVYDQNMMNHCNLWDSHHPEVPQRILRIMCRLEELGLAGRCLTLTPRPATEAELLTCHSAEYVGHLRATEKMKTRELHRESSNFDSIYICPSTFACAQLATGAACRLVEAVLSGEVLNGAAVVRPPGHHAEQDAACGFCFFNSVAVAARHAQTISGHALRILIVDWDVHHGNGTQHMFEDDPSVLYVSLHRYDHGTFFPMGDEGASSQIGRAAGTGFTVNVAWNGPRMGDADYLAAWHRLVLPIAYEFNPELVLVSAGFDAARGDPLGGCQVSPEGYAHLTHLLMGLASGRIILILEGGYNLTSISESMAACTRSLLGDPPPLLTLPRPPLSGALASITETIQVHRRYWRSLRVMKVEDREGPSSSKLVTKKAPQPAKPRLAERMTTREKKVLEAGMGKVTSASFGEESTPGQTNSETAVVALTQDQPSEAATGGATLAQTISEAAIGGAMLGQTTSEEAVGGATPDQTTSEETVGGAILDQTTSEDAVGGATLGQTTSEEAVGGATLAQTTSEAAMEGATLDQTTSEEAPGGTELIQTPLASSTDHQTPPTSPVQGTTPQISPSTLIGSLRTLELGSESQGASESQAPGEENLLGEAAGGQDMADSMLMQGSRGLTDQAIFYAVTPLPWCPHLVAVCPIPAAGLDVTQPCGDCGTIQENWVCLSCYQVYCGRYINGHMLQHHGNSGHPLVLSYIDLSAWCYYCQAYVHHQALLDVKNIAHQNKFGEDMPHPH
# [8] = biological target: Receptor tyrosine-protein kinase erbB-2 (Homo sapiens) (UniProt P04626); assay: Inhibition of HER2 (unknown origin) at 10 ug/ml using biotinylated peptide as substrate in presence of ATP relative to control; settings: dose 10.0 µg/ml
# [9] = biological target: T3, Epidermal growth factor receptor (Homo sapiens, UniProt P00533); assay: Inhibition of GST-tagged EGFR (unknown origin) at 10 ug/ml using biotinylated peptide as substrate in presence of ATP relative to control; settings: dose 10.0 µg/ml
# T3 sequence (P00533 whole entry): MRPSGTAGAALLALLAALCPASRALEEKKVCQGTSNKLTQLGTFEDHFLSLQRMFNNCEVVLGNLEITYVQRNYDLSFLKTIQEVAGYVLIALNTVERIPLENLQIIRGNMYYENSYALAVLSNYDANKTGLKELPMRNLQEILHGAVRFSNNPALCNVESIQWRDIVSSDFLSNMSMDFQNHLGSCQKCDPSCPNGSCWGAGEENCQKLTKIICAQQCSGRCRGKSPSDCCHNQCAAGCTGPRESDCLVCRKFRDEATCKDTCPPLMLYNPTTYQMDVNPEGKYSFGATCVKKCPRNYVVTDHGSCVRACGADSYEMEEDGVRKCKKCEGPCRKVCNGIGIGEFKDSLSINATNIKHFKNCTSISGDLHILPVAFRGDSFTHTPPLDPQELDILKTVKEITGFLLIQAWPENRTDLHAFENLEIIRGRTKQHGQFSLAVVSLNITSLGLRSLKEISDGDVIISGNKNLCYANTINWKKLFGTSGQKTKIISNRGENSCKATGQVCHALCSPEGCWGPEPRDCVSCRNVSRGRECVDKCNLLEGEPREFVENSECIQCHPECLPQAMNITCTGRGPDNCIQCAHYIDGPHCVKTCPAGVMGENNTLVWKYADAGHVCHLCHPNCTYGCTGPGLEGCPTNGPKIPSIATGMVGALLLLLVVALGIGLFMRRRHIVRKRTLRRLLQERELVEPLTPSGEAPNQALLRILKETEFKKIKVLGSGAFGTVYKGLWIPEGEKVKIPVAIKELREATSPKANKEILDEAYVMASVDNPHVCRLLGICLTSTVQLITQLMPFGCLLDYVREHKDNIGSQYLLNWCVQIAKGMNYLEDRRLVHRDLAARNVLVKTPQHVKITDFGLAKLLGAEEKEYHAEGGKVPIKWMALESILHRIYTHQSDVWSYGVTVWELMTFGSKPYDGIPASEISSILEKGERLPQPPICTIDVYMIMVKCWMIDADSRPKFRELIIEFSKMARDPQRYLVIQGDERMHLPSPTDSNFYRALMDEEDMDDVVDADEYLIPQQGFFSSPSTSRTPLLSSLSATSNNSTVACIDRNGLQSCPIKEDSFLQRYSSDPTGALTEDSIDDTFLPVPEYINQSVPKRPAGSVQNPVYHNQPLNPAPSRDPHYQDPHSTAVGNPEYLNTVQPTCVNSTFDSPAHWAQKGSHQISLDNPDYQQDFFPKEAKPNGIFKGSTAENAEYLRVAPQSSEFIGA
# [10] = biological target: T3, Epidermal growth factor receptor; assay: Inhibition of EGFR (unknown origin)
# MDA-MB-231 = assay: Cytotoxicity against human MDA-MB-231 cells assessed as reduction in cell viability by MTT assay; assay type: functional, cell-based
# MDA-MB-468 = assay: Cytotoxicity against human MDA-MB-468 cells assessed as reduction in cell viability by MTT assay; assay type: functional, cell-based
# HeLa = assay: Cytotoxicity against human HeLa cells assessed as reduction in cell viability by MTT assay; assay type: functional, cell-based
# HT-29 = assay: Cytotoxicity against human HT-29 cells assessed as reduction in cell viability by MTT assay; assay type: functional, cell-based
# KG-1 = assay: Cytotoxicity against human KG-1 cells assessed as reduction in cell viability by MTT assay; assay type: functional, cell-based
# OCI-AML2 = assay: Antiproliferative activity against human OCI-AML2 cells by MTT assay; assay type: functional, cell-based
# OCI-AML-3 = assay: Antiproliferative activity against human OCI-AML-3 cells by MTT assay; assay type: functional, cell-based
# MV4-11 = assay: Antiproliferative activity against human MV4-11 cells by MTT assay; assay type: functional, cell-based
# [11] = biological target: T2, Bromodomain-containing protein 4; assay: Inhibition of BRD4 BD2 domain (unknown origin)
# MCF7 [12] = assay: Cytotoxicity against human MCF7 cells assessed as reduction in cell viability; assay type: functional, cell-based
# DU-145 = assay: Cytotoxicity against human DU-145 cells assessed as reduction in cell viability; assay type: functional, cell-based
# Sequence of Vascular endothelial growth factor receptor 2 (P35968 whole entry): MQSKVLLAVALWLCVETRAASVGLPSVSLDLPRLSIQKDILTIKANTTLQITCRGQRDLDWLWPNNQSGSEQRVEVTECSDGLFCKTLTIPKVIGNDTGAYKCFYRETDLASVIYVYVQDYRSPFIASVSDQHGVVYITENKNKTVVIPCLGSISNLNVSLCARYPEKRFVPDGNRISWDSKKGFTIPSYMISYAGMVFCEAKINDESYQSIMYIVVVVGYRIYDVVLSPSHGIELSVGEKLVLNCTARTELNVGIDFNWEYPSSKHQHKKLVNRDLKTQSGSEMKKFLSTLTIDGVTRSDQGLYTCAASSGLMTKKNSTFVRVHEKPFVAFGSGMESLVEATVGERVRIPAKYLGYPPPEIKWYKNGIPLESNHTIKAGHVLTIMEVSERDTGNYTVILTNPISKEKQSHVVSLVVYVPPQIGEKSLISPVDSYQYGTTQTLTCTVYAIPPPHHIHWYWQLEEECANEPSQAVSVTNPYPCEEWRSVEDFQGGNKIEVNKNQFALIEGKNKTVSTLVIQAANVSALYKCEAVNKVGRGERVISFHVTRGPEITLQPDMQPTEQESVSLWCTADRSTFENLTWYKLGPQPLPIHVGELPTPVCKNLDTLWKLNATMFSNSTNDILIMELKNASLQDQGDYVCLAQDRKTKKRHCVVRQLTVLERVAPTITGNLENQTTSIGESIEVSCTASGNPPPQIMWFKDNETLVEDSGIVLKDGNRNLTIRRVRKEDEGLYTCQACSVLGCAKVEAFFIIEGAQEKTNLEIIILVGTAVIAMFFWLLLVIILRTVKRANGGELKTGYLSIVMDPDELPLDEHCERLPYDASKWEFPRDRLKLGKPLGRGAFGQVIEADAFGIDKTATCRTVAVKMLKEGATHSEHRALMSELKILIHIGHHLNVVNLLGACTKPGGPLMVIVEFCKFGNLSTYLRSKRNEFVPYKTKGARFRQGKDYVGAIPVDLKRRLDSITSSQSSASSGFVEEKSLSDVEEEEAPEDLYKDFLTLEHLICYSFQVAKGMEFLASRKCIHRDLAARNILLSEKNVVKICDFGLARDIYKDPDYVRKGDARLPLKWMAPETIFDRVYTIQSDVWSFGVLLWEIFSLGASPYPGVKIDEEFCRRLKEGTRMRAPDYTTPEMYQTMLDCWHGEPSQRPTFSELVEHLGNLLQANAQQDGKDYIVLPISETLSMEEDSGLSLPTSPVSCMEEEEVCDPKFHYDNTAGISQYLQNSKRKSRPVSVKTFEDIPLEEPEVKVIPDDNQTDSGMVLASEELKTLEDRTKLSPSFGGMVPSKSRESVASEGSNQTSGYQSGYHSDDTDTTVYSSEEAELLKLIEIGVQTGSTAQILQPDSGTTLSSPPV
SMILES,IC50 (Histone deacetylase),GI50 (THP-1),also measured
Cc1noc(C)c1-c1ccc2c(c1)c(Cc1ccccc1)cn2CCCCCCC(=O)NO,291 nM,15500 nM,
Cn1cc(-c2ccnc(Nc3ccc(C(=O)NO)cc3)n2)c2ccccc21,< 1000 nM,,
Cn1cc(-c2ccnc(Nc3ccc(C(=O)NCCC(=O)NO)cc3)n2)c2ccccc21,< 1000 nM,,
C#Cc1cccc(NC(=O)c2cc(OCCCCCCC(=O)NO)ccc2O)c1,< 1000 nM,,
Cn1cc(-c2ccnc(Nc3ccc(C(=O)NCCCC(=O)NO)cc3)n2)c2ccccc21,< 1000 nM,,
Cc1noc(C)c1-c1ccc2c(c1)c(CCc1ccccc1)cn2CCCCCCC(=O)NO,291 nM,15500 nM,
Cc1sc2c(c1C)C(c1ccc(Cl)cc1)=N[C@@H](CC(=O)OC(C)(C)C)c1nnc(C)n1-2,291 nM,15500 nM,
COc1cc(O)c(C(=O)Nc2ccc(F)c(Cl)c2)cc1NC(=O)CCCCCC(=O)NO,< 1000 nM,,
COc1cc(OC)c2c(=O)[nH]c(-c3ccc(Oc4ccc(C(=O)NO)cn4)cc3)nc2c1,291 nM,15500 nM,
O=C(CCCCCC(=O)Nc1ccc(O)c(C(=O)Nc2ccccc2)c1)NO,< 1000 nM,,
COc1cc2ncnc(Nc3ccc(Br)cc3)c2cc1OCCCCCC(=O)NO,2.2 nM,,IC50 [1]: 74 nM; IC50 (MCF7 [2]): 850 nM
Cc1noc(C)c1-c1ccc2c(c1)c(CCc1ccccc1)cn2CCCCCC(=O)NO,291 nM,15500 nM,
Cc1noc(C)c1-c1ccc2c(c1)c(CCc1ccc(F)cc1)cn2CCCCCC(=O)NO,291 nM,15500 nM,
O=C(CCCCCC(=O)Nc1ccc(O)c(C(=O)Nc2cccc(C(F)(F)F)c2)c1)NO,< 1000 nM,,
C#Cc1cccc(Nc2ncnc3cc(OCCOC)c(OCCOC)cc23)c1 [ERLOTINIB],,,IC50 (MCF7 [3]): 2700 nM; IC50 (A549): 11800 nM; IC50 (A-431): 1410 nM
COc1cc(OC)c2c(=O)[nH]c(-c3ccc(OCCCCC(=O)NO)cc3)nc2c1,291 nM,15500 nM,
Cc1noc(C)c1-c1ccc2c(c1)c(Cc1cccc(C(F)(F)F)c1)cn2CCCCCC(=O)NO,291 nM,15500 nM,
O=C(CCCCCC(=O)Nc1ccc(O)c(C(=O)Nc2cccc(F)c2)c1)NO,< 1000 nM,,
Cn1cc(-c2ccnc(Nc3ccc(C(=O)Nc4ccccc4N)cc3)n2)c2ccccc21,< 1000 nM,,
COc1cc(OC)c2c(=O)[nH]c(-c3ccc(OC/C=C/C(=O)NO)cc3)nc2c1,291 nM,15500 nM,
C=CC(=O)Nc1cc(Nc2nccc(-c3cn(C)c4ccccc34)n2)c(OC)cc1N(C)CCN(C)C [OSIMERTINIB],< 1000 nM,,
COc1cc(OC)c2c(=O)[nH]c(-c3ccc(OCCCCCCC(=O)NO)cc3)nc2c1,291 nM,15500 nM,

SMILES,IC50 (Histone deacetylase),GI50 (THP-1),also measured
COc1cc(C(=O)NCCCCCC(=O)NO)ccc1Nc1nccc(-c2cn(C)c3ccccc23)n1,< 1000 nM,,
O=C(CCCCOc1ccccc1C(=O)Nc1cccc2[nH]cnc12)NO,2700 nM,,IC50 (Histone deacetylase 1 [4]): 150 nM; IC50 [5]: 260 nM
Cc1ccc(Cc2cn(CCCCCCC(=O)NO)c3ccc(-c4c(C)noc4C)cc23)cc1,291 nM,15500 nM,
O=C(CCCCCC(=O)Nc1ccc(O)c(C(=O)Nc2ccc(F)c(F)c2)c1)NO,< 1000 nM,,
COc1cc(C(=O)NCCCC(=O)NO)ccc1Nc1nccc(-c2cn(C)c3ccccc23)n1,< 1000 nM,,
CC(=O)N1c2ccc(-c3ccc(NC(=O)CCCCCCC(=O)NO)cc3)cc2[C@H](NC(=O)OC(C)C)C[C@@H]1C,,,IC50 (Histone deacetylase 1 [4]): 150 nM
COc1cc2/c(=N/c3ccc(Br)cc3F)nc[nH]c2cc1OCC1CCN(C)CC1 [VANDETANIB],,,IC50 (MCF7 [2]): 18500 nM
COc1cc(OC)c2c(=O)[nH]c(-c3ccc(OCc4cc(C)c(/C=C/C(=O)NO)c(C)c4)cc3)nc2c1,291 nM,15500 nM,
COc1cc(C(=O)NCCCCCCC(=O)NO)ccc1Nc1nccc(-c2cn(C)c3ccccc23)n1,< 1000 nM,,
COc1cc(OC)c2c(=O)[nH]c(-c3cc(C)c(OCCCCCC(=O)NO)c(C)c3)nc2c1,291 nM,15500 nM,
O=C(CCCCCC(=O)Nc1ccc(O)c(C(=O)Nc2ccc(Cl)c(Cl)c2)c1)NO,< 1000 nM,,
COCCOc1cc2ncnc(Nc3ccc(/C=C/C(=O)NO)cc3)c2cc1OCCOC,,,IC50 (Histone deacetylase 1 [6]): 160 nM; IC50 (Histone deacetylase 3): 180 nM; IC50 [7]: 560 nM; inhibition [8]: 84%; inhibition [9]: 70%
COc1cc(OC)c2c(=O)[nH]c(-c3cc(C)c(O)c(C)c3)nc2c1,291000 nM,15500 nM,
Cc1cccc(Cc2cn(CCCCCC(=O)NO)c3ccc(-c4c(C)noc4C)cc23)c1,291 nM,15500 nM,
O=C(CCCCCC(=O)Nc1ccc(O)c(C(=O)Nc2ccc(F)c(Cl)c2)c1)NO,< 1000 nM,,
Cc1ccc(Cc2cn(CCCCCC(=O)NO)c3ccc(-c4c(C)noc4C)cc23)cc1,291 nM,15500 nM,
Cc1noc(C)c1-c1ccc2c(c1)c(Cc1ccc(F)cc1)cn2CCCCCC(=O)NO,291 nM,15500 nM,
O=C(CCCCCC(=O)Nc1ccc(O)c(C(=O)Nc2ccc(Cl)c(C(F)(F)F)c2)c1)NO,< 1000 nM,,
Cc1noc(C)c1-c1ccc2c(c1)c(Cc1ccc(F)cc1)cn2CCCCCCC(=O)NO,,,IC50 (Histone deacetylase 1 [4]): 150 nM; IC50 [5]: 670 nM
Cn1cc(-c2ccnc(Nc3ccc(C(=O)NCCCCCC(=O)NO)cc3)n2)c2ccccc21,< 1000 nM,,
Cn1cc(-c2ccnc(Nc3ccc(C(=O)NCCCCCCC(=O)NO)cc3)n2)c2ccccc21,<= 1 uM,,IC50 [10]: 5700 nM; IC50 (MDA-MB-231): 600 nM; IC50 (MDA-MB-468): 230 nM; IC50 (HeLa): 1850 nM; IC50 (HT-29): 790 nM; IC50 (KG-1): 240 nM
COc1cc(OC)c2c(=O)[nH]c(-c3ccc(OCCCC(=O)NO)cc3)nc2c1,32 nM,15500 nM,IC50 (OCI-AML2): 1520 nM; IC50 (OCI-AML-3): 1090 nM; IC50 (MV4-11): 1670 nM; IC50 [11]: 225 nM

SMILES,IC50 (Histone deacetylase),GI50 (THP-1),also measured
Cn1cc(-c2ccnc(Nc3ccc(C(=O)NCCCCC(=O)NO)cc3)n2)c2ccccc21,< 1000 nM,,
Cc1cccc(Cc2cn(CCCCCCC(=O)NO)c3ccc(-c4c(C)noc4C)cc23)c1,291 nM,15500 nM,
Cc1ccccc1Cc1cn(CCCCCCC(=O)NO)c2ccc(-c3c(C)noc3C)cc12,291 nM,15500 nM,
COC(c1c(F)cccc1Cl)c1c[nH]c2ncc(-c3c(C)noc3C)cc12 (stereo unspecified),291 nM,15500 nM,
O=C(CCCCCC(=O)Nc1ccc(O)c(C(=O)Nc2ccc(OCc3cccc(F)c3)c(Cl)c2)c1)NO,< 1000 nM,,
C#Cc1cccc(NC(=O)c2cc(NC(=O)CCCCCCC(=O)NO)ccc2O)c1,< 1000 nM,,
Cc1noc(C)c1-c1ccc2c(c1)c(CCc1ccc(F)cc1)cn2CCCCCCC(=O)NO,291 nM,15500 nM,
C#Cc1cccc(NC(=O)c2cc(NC(=O)CCCCCC(=O)NO)ccc2O)c1,< 1000 nM,,
Cc1noc(C)c1-c1ccc2c(c1)c(Cc1ccccc1)cn2CCCCCC(=O)NO,291 nM,15500 nM,
COc1cc(OC)c2c(=O)[nH]c(-c3ccc(OCCCCCC(=O)NO)cc3)nc2c1,291 nM,15500 nM,
COc1cc(OC)c2c(=O)[nH]c(-c3ccc(OCc4ccc(/C=C/C(=O)NO)cc4)cc3)nc2c1,291 nM,15500 nM,
COc1cc(C(=O)NCCCCC(=O)NO)ccc1Nc1nccc(-c2cn(C)c3ccccc23)n1,< 1000 nM,,
O=C(CCCCCCC(=O)Nc1ccccc1)NO [VORINOSTAT],,,IC50 [10]: 900 nM
C#Cc1cccc(NC(=O)c2cc(NC(=O)CCCCCC(=O)NO)c(OC)cc2O)c1,< 1000 nM,,
Cc1ccccc1OS(=O)(=O)C1CC2OC1C(c1ccc(NC(=O)CCCCCCC(=O)NO)cc1)=C2c1ccc(O)cc1 (stereo unspecified),,,IC50 (Histone deacetylase 1 [4]): 22 nM; IC50 (MCF7 [12]): 7900 nM; IC50 (DU-145): > 100000 nM
Cc1ccccc1Cc1cn(CCCCCC(=O)NO)c2ccc(-c3c(C)noc3C)cc12,291 nM,15500 nM,
COc1cc(C(=O)NCCC(=O)NO)ccc1Nc1nccc(-c2cn(C)c3ccccc23)n1,< 1000 nM,,
COc1cc(OC)c2c(=O)[nH]c(-c3cc(C)c(OCCCCC(=O)NO)c(C)c3)nc2c1,,,IC50 (Histone deacetylase 1 [4]): 150 nM; IC50 [5]: 670 nM
Cc1noc(C)c1-c1cc(NC(=O)CCCCCC(=O)NO)cc(C(=O)c2ccccc2)c1,,,IC50 (Histone deacetylase 1 [4]): 150 nM; IC50 [5]: 670 nM
COc1cc(OC)c2c(=O)[nH]c(-c3ccc(OCCCCCCCC(=O)NO)cc3)nc2c1,291 nM,15500 nM,
